± gives the expanded uncertainty stated by the source.
experiment: not given; settings: 283.15 K; 101.33 kPa; Liquid; Vibrating tube method

Question: Which mass density does the source give for CCCC[N+]1(C)CCCC1.N#C[B-](C#N)(C#N)C#N [1-butyl-1-methylpyrrolidinium tetracyanoborate] here?
Answer: 986.48 ± 0.29 kg/m3

same assay, conditions: 293.15 K; 101.33 kPa; Liquid; Vibrating tube method

Question: With CCCC[N+]1(C)CCCC1.N#C[B-](C#N)(C#N)C#N [1-butyl-1-methylpyrrolidinium tetracyanoborate] as the compound, how does the mass density read?
Answer: 979.5 ± 0.29 kg/m3

same assay, conditions: 303.15 K; 101.33 kPa; Liquid; Vibrating tube method

Question: With CCCC[N+]1(C)CCCC1.N#C[B-](C#N)(C#N)C#N [1-butyl-1-methylpyrrolidinium tetracyanoborate] as the compound, how does the mass density read?
Answer: 972.59 ± 0.29 kg/m3

same assay, conditions: 313.15 K; 101.33 kPa; Liquid; Vibrating tube method

Question: Which mass density does the source give for CCCC[N+]1(C)CCCC1.N#C[B-](C#N)(C#N)C#N [1-butyl-1-methylpyrrolidinium tetracyanoborate] here?
Answer: 965.77 ± 0.29 kg/m3

same assay, conditions: 323.15 K; 101.33 kPa; Liquid; Vibrating tube method

Question: For CCCC[N+]1(C)CCCC1.N#C[B-](C#N)(C#N)C#N [1-butyl-1-methylpyrrolidinium tetracyanoborate], which mass density is on record?
Answer: 959.04 ± 0.29 kg/m3

same assay, conditions: 328.15 K; 101.33 kPa; Liquid; Vibrating tube method

Question: For CCCC[N+]1(C)CCCC1.O=C1O[B-]2(OC1=O)OC(=O)C(=O)O2 [1-butyl-1-methylpyrrolidinium bis(oxalato)borate], which mass density is on record?
Answer: 1235.34 ± 0.44 kg/m3

same assay, conditions: 333.15 K; 101.33 kPa; Liquid; Vibrating tube method

Question: With CCCC[N+]1(C)CCCC1.O=C1O[B-]2(OC1=O)OC(=O)C(=O)O2 [1-butyl-1-methylpyrrolidinium bis(oxalato)borate] as the compound, how does the mass density read?
Answer: 1231.29 ± 0.44 kg/m3

Question: For CCCC[N+]1(C)CCCC1.N#C[B-](C#N)(C#N)C#N [1-butyl-1-methylpyrrolidinium tetracyanoborate], which mass density is on record?
Answer: 952.4 ± 0.29 kg/m3

same assay, conditions: 338.15 K; 101.33 kPa; Liquid; Vibrating tube method

Question: For CCCC[N+]1(C)CCCC1.O=C1O[B-]2(OC1=O)OC(=O)C(=O)O2 [1-butyl-1-methylpyrrolidinium bis(oxalato)borate], which mass density is on record?
Answer: 1227.23 ± 0.43 kg/m3

same assay, conditions: 343.15 K; 101.33 kPa; Liquid; Vibrating tube method

Question: Which mass density does the source give for CCCC[N+]1(C)CCCC1.O=C1O[B-]2(OC1=O)OC(=O)C(=O)O2 [1-butyl-1-methylpyrrolidinium bis(oxalato)borate] here?
Answer: 1223.19 ± 0.43 kg/m3

Question: Which mass density does the source give for CCCC[N+]1(C)CCCC1.N#C[B-](C#N)(C#N)C#N [1-butyl-1-methylpyrrolidinium tetracyanoborate] here?
Answer: 945.83 ± 0.29 kg/m3

same assay, conditions: 348.15 K; 101.33 kPa; Liquid; Vibrating tube method

Question: Which mass density does the source give for CCCC[N+]1(C)CCCC1.O=C1O[B-]2(OC1=O)OC(=O)C(=O)O2 [1-butyl-1-methylpyrrolidinium bis(oxalato)borate] here?
Answer: 1219.17 ± 0.43 kg/m3

same assay, conditions: 353.15 K; 101.33 kPa; Liquid; Vibrating tube method

Question: For CCCC[N+]1(C)CCCC1.O=C1O[B-]2(OC1=O)OC(=O)C(=O)O2 [1-butyl-1-methylpyrrolidinium bis(oxalato)borate], which mass density is on record?
Answer: 1215.17 ± 0.42 kg/m3

experiment: activity coefficient (dimensionless); of the first substance listed, at infinite dilution; xn = mol fraction of the nth substance listed; settings: 318.15 K; 101 kPa; Liquid; Chromatography; x1 = 0

Question: With CCCCCCCC [octane] + CCCC[N+]1(C)CCCC1.N#C[B-](C#N)(C#N)C#N as the compound, how does the activity coefficient read?
Answer: 33.2 ± 1.7

Question: Which activity coefficient does the source give for CCCO [propan-1-ol] + CCCC[N+]1(C)CCCC1.N#C[B-](C#N)(C#N)C#N here?
Answer: 1.53 ± 0.07

Question: Which activity coefficient does the source give for ClC(Cl)(Cl)Cl [tetrachloromethane] + CCCC[N+]1(C)CCCC1.N#C[B-](C#N)(C#N)C#N here?
Answer: 2.4 ± 0.12

Question: With C1CCOC1 [tetrahydrofuran] + CCCC[N+]1(C)CCCC1.N#C[B-](C#N)(C#N)C#N as the compound, how does the activity coefficient read?
Answer: 0.622 ± 0.033

Question: For c1ccsc1 [thiophene] + CCCC[N+]1(C)CCCC1.N#C[B-](C#N)(C#N)C#N, which activity coefficient is on record?
Answer: 0.681 ± 0.034

Question: For Cc1ccccc1 [toluene] + CCCC[N+]1(C)CCCC1.N#C[B-](C#N)(C#N)C#N, which activity coefficient is on record?
Answer: 1.13 ± 0.05

Question: For ClC(Cl)Cl [trichloromethane] + CCCC[N+]1(C)CCCC1.N#C[B-](C#N)(C#N)C#N, which activity coefficient is on record?
Answer: 0.609 ± 0.033

same assay, conditions: 323.15 K; 101 kPa; Liquid; Chromatography; x1 = 0

Question: With CCCCCCCC [octane] + CCCC[N+]1(C)CCCC1.N#C[B-](C#N)(C#N)C#N as the compound, how does the activity coefficient read?
Answer: 31.8 ± 1.6

Question: With CCCO [propan-1-ol] + CCCC[N+]1(C)CCCC1.N#C[B-](C#N)(C#N)C#N as the compound, how does the activity coefficient read?
Answer: 1.46 ± 0.07

Question: With ClC(Cl)(Cl)Cl [tetrachloromethane] + CCCC[N+]1(C)CCCC1.N#C[B-](C#N)(C#N)C#N as the compound, how does the activity coefficient read?
Answer: 2.41 ± 0.12

Question: With C1CCOC1 [tetrahydrofuran] + CCCC[N+]1(C)CCCC1.N#C[B-](C#N)(C#N)C#N as the compound, how does the activity coefficient read?
Answer: 0.632 ± 0.033

Question: Which activity coefficient does the source give for c1ccsc1 [thiophene] + CCCC[N+]1(C)CCCC1.N#C[B-](C#N)(C#N)C#N here?
Answer: 0.688 ± 0.035

Question: With Cc1ccccc1 [toluene] + CCCC[N+]1(C)CCCC1.N#C[B-](C#N)(C#N)C#N as the compound, how does the activity coefficient read?
Answer: 1.15 ± 0.05

Question: Which activity coefficient does the source give for ClC(Cl)Cl [trichloromethane] + CCCC[N+]1(C)CCCC1.N#C[B-](C#N)(C#N)C#N here?
Answer: 0.623 ± 0.033

same assay, conditions: 333.15 K; 101 kPa; Liquid; Chromatography; x1 = 0

Question: For C=CCCCCCC [oct-1-ene] + CCCC[N+]1(C)CCCC1.O=C1O[B-]2(OC1=O)OC(=O)C(=O)O2, which activity coefficient is on record?
Answer: 41.4 ± 2.1

Question: For CCCCCCCC [octane] + CCCC[N+]1(C)CCCC1.N#C[B-](C#N)(C#N)C#N, which activity coefficient is on record?
Answer: 29.4 ± 1.5

Question: Which activity coefficient does the source give for CCCCCCCC [octane] + CCCC[N+]1(C)CCCC1.O=C1O[B-]2(OC1=O)OC(=O)C(=O)O2 here?
Answer: 88.8 ± 4.6

Question: Which activity coefficient does the source give for CCCO [propan-1-ol] + CCCC[N+]1(C)CCCC1.N#C[B-](C#N)(C#N)C#N here?
Answer: 1.34 ± 0.06

Question: Which activity coefficient does the source give for CCCO [propan-1-ol] + CCCC[N+]1(C)CCCC1.O=C1O[B-]2(OC1=O)OC(=O)C(=O)O2 here?
Answer: 2.56 ± 0.13

Question: With CC(C)O [propan-2-ol] + CCCC[N+]1(C)CCCC1.N#C[B-](C#N)(C#N)C#N as the compound, how does the activity coefficient read?
Answer: 1.35 ± 0.06

Question: For ClC(Cl)(Cl)Cl [tetrachloromethane] + CCCC[N+]1(C)CCCC1.N#C[B-](C#N)(C#N)C#N, which activity coefficient is on record?
Answer: 2.43 ± 0.12

Question: With ClC(Cl)(Cl)Cl [tetrachloromethane] + CCCC[N+]1(C)CCCC1.O=C1O[B-]2(OC1=O)OC(=O)C(=O)O2 as the compound, how does the activity coefficient read?
Answer: 4.23 ± 0.22

Question: For C1CCOC1 [tetrahydrofuran] + CCCC[N+]1(C)CCCC1.N#C[B-](C#N)(C#N)C#N, which activity coefficient is on record?
Answer: 0.65 ± 0.034

Question: Which activity coefficient does the source give for C1CCOC1 [tetrahydrofuran] + CCCC[N+]1(C)CCCC1.O=C1O[B-]2(OC1=O)OC(=O)C(=O)O2 here?
Answer: 1.13 ± 0.05

Question: With c1ccsc1 [thiophene] + CCCC[N+]1(C)CCCC1.N#C[B-](C#N)(C#N)C#N as the compound, how does the activity coefficient read?
Answer: 0.703 ± 0.035

Question: With c1ccsc1 [thiophene] + CCCC[N+]1(C)CCCC1.O=C1O[B-]2(OC1=O)OC(=O)C(=O)O2 as the compound, how does the activity coefficient read?
Answer: 1.13 ± 0.05

Question: Which activity coefficient does the source give for Cc1ccccc1 [toluene] + CCCC[N+]1(C)CCCC1.N#C[B-](C#N)(C#N)C#N here?
Answer: 1.17 ± 0.05

Question: For Cc1ccccc1 [toluene] + CCCC[N+]1(C)CCCC1.O=C1O[B-]2(OC1=O)OC(=O)C(=O)O2, which activity coefficient is on record?
Answer: 2.57 ± 0.13

Question: Which activity coefficient does the source give for ClC(Cl)Cl [trichloromethane] + CCCC[N+]1(C)CCCC1.N#C[B-](C#N)(C#N)C#N here?
Answer: 0.654 ± 0.034

Question: With ClC(Cl)Cl [trichloromethane] + CCCC[N+]1(C)CCCC1.O=C1O[B-]2(OC1=O)OC(=O)C(=O)O2 as the compound, how does the activity coefficient read?
Answer: 1 ± 0.04

same assay, conditions: 343.15 K; 101 kPa; Liquid; Chromatography; x1 = 0

Question: Which activity coefficient does the source give for C=CCCCCCC [oct-1-ene] + CCCC[N+]1(C)CCCC1.O=C1O[B-]2(OC1=O)OC(=O)C(=O)O2 here?
Answer: 37.5 ± 1.9

Question: For CCCCCCCC [octane] + CCCC[N+]1(C)CCCC1.N#C[B-](C#N)(C#N)C#N, which activity coefficient is on record?
Answer: 27.4 ± 1.4

Question: With CCCCCCCC [octane] + CCCC[N+]1(C)CCCC1.O=C1O[B-]2(OC1=O)OC(=O)C(=O)O2 as the compound, how does the activity coefficient read?
Answer: 77.7 ± 4

— the NIST ThermoML archive (doi:10.1016/j.jct.2012.09.017)
